Data from the NIST ThermoML archive (doi:10.1016/j.tca.2011.08.002).

Columns and labels:
[1] = xn = mol fraction of the nth substance listed; details: 101 kPa, Liquid, Vibrating tube method
[2] = refractive index (Na D-line) (dimensionless); xn = mol fraction of the nth substance listed; details: 101 kPa, Liquid, Standard Abbe refractometry

C1CCC(NC2CCCCC2)CC1 [N-cyclohexylcyclohexanamine] + CC(C)(C)O
Details	mass density, 303.15 K [kg/m3]	mass density, 308.15 K [kg/m3]	mass density, 313.15 K [kg/m3]	mass density, 318.15 K [kg/m3]	mass density, 323.15 K [kg/m3]	refractive index, 303.15 K	refractive index, 308.15 K	refractive index, 313.15 K	refractive index, 318.15 K	refractive index, 323.15 K
[1], x2 = 0	904.144	900.372	896.608	892.847	889.089	–	–	–	–	–
[1], x2 = 0.1	899.362	895.452	891.533	887.611	883.684	–	–	–	–	–
[1], x2 = 0.199	893.462	889.433	885.384	881.326	877.25	–	–	–	–	–
[1], x2 = 0.289	887.197	883.071	878.917	874.742	870.544	–	–	–	–	–
[1], x2 = 0.4	878.023	873.772	869.49	865.171	860.821	–	–	–	–	–
[1], x2 = 0.485	869.715	865.366	860.973	856.539	852.063	–	–	–	–	–
[1], x2 = 0.6	856.549	852.061	847.522	842.928	838.281	–	–	–	–	–
[1], x2 = 0.698	843.066	838.44	833.751	829.003	824.196	–	–	–	–	–
[1], x2 = 0.801	825.644	820.845	815.974	811.036	806.029	–	–	–	–	–
[1], x2 = 0.849	815.948	811.061	806.1	801.065	795.955	–	–	–	–	–
[1], x2 = 0.9	804.266	799.276	794.206	789.061	783.837	–	–	–	–	–
[2], x2 = 0	–	–	–	–	–	1.47978	1.47761	1.47562	1.47347	1.47134
[2], x2 = 0.1	–	–	–	–	–	1.47584	1.47362	1.47142	1.46916	1.467
[2], x2 = 0.199	–	–	–	–	–	1.47107	1.46875	1.46639	1.4641	1.46188
[2], x2 = 0.289	–	–	–	–	–	1.46609	1.46373	1.46133	1.45899	1.45674
[2], x2 = 0.4	–	–	–	–	–	1.45896	1.4565	1.45403	1.45163	1.44932
[2], x2 = 0.485	–	–	–	–	–	1.45238	1.44994	1.44742	1.44498	1.44272
[2], x2 = 0.6	–	–	–	–	–	1.4423	1.43973	1.43717	1.43461	1.43215
[2], x2 = 0.698	–	–	–	–	–	1.43185	1.42927	1.42663	1.42401	1.42155
[2], x2 = 0.801	–	–	–	–	–	1.41877	1.41609	1.41336	1.41073	1.4081
[2], x2 = 0.849	–	–	–	–	–	1.41128	1.40862	1.40587	1.40316	1.40048
[2], x2 = 0.9	–	–	–	–	–	1.40275	1.40004	1.39727	1.39449	1.39193

C1CCC(NC2CCCCC2)CC1 [N-cyclohexylcyclohexanamine] + CCC(C)O
Details	mass density, [1] [kg/m3]	refractive index, [2]
288.15 K, x2 = 0	915.498	1.48636
288.15 K, x2 = 0.0996	912.349	1.48336
288.15 K, x2 = 0.1998	908.349	1.47951
288.15 K, x2 = 0.3	903.446	1.47497
288.15 K, x2 = 0.3998	897.469	1.46961
288.15 K, x2 = 0.5011	889.89	1.4629
288.15 K, x2 = 0.599	880.802	1.45516
288.15 K, x2 = 0.6999	869.241	1.44554
288.15 K, x2 = 0.7998	854.484	1.43365
288.15 K, x2 = 0.8996	835.606	1.41884
288.15 K, x2 = 0.9494	823.99	1.41002
293.15 K, x2 = 0	911.705	1.48416
293.15 K, x2 = 0.0996	908.493	1.48112
293.15 K, x2 = 0.1998	904.427	1.47724
293.15 K, x2 = 0.3	899.455	1.47268
293.15 K, x2 = 0.3998	893.416	1.46731
293.15 K, x2 = 0.5011	885.775	1.46057
293.15 K, x2 = 0.599	876.639	1.45283
293.15 K, x2 = 0.6999	865.057	1.44322
293.15 K, x2 = 0.7998	850.31	1.43136
293.15 K, x2 = 0.8996	831.493	1.41658
293.15 K, x2 = 0.9494	819.925	1.40783
298.15 K, x2 = 0	907.923	1.48198
298.15 K, x2 = 0.0996	904.633	1.47892
298.15 K, x2 = 0.1998	900.497	1.47499
298.15 K, x2 = 0.3	895.457	1.47041
298.15 K, x2 = 0.3998	889.353	1.465
298.15 K, x2 = 0.5011	881.646	1.45825
298.15 K, x2 = 0.599	872.452	1.4505
298.15 K, x2 = 0.6999	860.838	1.44088
298.15 K, x2 = 0.7998	846.088	1.42906
298.15 K, x2 = 0.8996	827.317	1.41432
298.15 K, x2 = 0.9494	815.784	1.40558
303.15 K, x2 = 0	904.144	1.47978
303.15 K, x2 = 0.0996	900.775	1.47667
303.15 K, x2 = 0.1998	896.561	1.47273
303.15 K, x2 = 0.3	891.448	1.46813
303.15 K, x2 = 0.3998	885.272	1.4627
303.15 K, x2 = 0.5011	877.495	1.45591
303.15 K, x2 = 0.599	868.239	1.44817
303.15 K, x2 = 0.6999	856.586	1.43852
303.15 K, x2 = 0.7998	841.819	1.42671
303.15 K, x2 = 0.8996	823.072	1.412
303.15 K, x2 = 0.9494	811.566	1.40329
308.15 K, x2 = 0	900.372	1.47761
308.15 K, x2 = 0.0996	896.914	1.47445
308.15 K, x2 = 0.1998	892.619	1.47046
308.15 K, x2 = 0.3	887.426	1.4658
308.15 K, x2 = 0.3998	881.174	1.46034
308.15 K, x2 = 0.5011	873.319	1.45358
308.15 K, x2 = 0.599	863.994	1.44577
308.15 K, x2 = 0.6999	852.289	1.43617
308.15 K, x2 = 0.7998	837.495	1.42437
308.15 K, x2 = 0.8996	818.755	1.40968
308.15 K, x2 = 0.9494	807.262	1.40094
313.15 K, x2 = 0	896.608	1.47562
313.15 K, x2 = 0.0996	893.053	1.4722
313.15 K, x2 = 0.1998	888.669	1.46818
313.15 K, x2 = 0.3	883.39	1.46347
313.15 K, x2 = 0.3998	877.057	1.45797
313.15 K, x2 = 0.5011	869.116	1.45115
313.15 K, x2 = 0.599	859.715	1.44326
313.15 K, x2 = 0.6999	847.947	1.43367
313.15 K, x2 = 0.7998	833.106	1.42179
313.15 K, x2 = 0.8996	814.354	1.40723
313.15 K, x2 = 0.9494	802.87	1.39851
318.15 K, x2 = 0	892.847	1.47347
318.15 K, x2 = 0.0996	889.189	1.46999
318.15 K, x2 = 0.1998	884.706	1.46593
318.15 K, x2 = 0.3	879.336	1.46119
318.15 K, x2 = 0.3998	872.915	1.45564
318.15 K, x2 = 0.5011	864.882	1.44879
318.15 K, x2 = 0.599	855.394	1.44089
318.15 K, x2 = 0.6999	843.552	1.43125
318.15 K, x2 = 0.7998	828.652	1.41937
318.15 K, x2 = 0.8996	809.861	1.40479
318.15 K, x2 = 0.9494	798.377	1.39613
323.15 K, x2 = 0	889.089	1.47134
323.15 K, x2 = 0.0996	885.321	1.46783
323.15 K, x2 = 0.1998	880.732	1.46374
323.15 K, x2 = 0.3	875.264	1.45889
323.15 K, x2 = 0.3998	868.746	1.45336
323.15 K, x2 = 0.5011	860.611	1.44656
323.15 K, x2 = 0.599	851.029	1.43856
323.15 K, x2 = 0.6999	839.101	1.42888
323.15 K, x2 = 0.7998	824.126	1.41694
323.15 K, x2 = 0.8996	805.292	1.40233
323.15 K, x2 = 0.9494	793.784	1.39357
